Test results as given in ChEMBL document CHEMBL1828590 (J Med Chem, 2011).

Legend:
Cytochrome P450 2D6 [1] = target: T1, Cytochrome P450 2D6 (Homo sapiens, UniProt P10635); experiment: Inhibition of recombinant CYP2D6 after 30 mins by fluorescence assay; format: ADME
Histone deacetylase 4 = Histone deacetylase 4 (Homo sapiens, UniProt P56524)
Description: Competitive inhibition of HDAC4 using KI-104 as substrate by fluorescence assay

COLO 205 = experiment: Antiproliferative activity against human COLO205 cells after 96 hrs by celltiter 96 assay; format: functional, cell-based; settings: COLO 205, 96 h
CYP1A = target: T2, CYP1A (Homo sapiens, UniProt P04798+P05177); experiment: Inhibition of CYP1A in human liver microsomes by fluorescence assay; format: ADME, Microsome
T2 sequence (P04798 whole entry): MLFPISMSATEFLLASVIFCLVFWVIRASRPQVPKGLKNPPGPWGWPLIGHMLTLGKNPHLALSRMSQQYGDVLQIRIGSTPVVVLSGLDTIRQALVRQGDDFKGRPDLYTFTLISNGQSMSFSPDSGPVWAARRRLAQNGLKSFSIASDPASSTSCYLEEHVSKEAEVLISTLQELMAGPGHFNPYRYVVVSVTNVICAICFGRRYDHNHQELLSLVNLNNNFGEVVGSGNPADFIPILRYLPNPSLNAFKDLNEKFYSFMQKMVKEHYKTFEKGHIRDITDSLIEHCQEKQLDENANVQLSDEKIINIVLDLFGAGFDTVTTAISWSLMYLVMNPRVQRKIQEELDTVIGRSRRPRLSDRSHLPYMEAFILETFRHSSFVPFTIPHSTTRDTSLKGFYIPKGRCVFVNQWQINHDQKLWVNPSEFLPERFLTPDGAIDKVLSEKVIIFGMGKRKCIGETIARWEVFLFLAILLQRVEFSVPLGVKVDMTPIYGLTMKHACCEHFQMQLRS
T2 sequence (P05177 whole entry): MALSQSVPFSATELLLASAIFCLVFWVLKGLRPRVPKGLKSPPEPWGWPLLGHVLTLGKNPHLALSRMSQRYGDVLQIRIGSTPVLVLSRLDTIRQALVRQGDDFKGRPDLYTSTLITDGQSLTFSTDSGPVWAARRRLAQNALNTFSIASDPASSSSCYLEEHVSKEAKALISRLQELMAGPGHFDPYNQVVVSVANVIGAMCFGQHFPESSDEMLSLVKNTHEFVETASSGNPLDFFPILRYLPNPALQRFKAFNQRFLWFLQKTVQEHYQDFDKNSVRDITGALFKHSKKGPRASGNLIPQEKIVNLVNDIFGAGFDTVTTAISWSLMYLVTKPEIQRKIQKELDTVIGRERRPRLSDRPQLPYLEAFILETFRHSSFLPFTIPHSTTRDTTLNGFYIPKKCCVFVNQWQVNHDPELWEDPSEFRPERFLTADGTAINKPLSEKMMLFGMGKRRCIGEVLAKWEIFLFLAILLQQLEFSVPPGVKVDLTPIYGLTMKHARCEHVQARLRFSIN

Histone deacetylase 5 = Histone deacetylase 5 (Homo sapiens, UniProt Q9UQL6)
Sequence of Histone deacetylase 5 (Q9UQL6 whole entry): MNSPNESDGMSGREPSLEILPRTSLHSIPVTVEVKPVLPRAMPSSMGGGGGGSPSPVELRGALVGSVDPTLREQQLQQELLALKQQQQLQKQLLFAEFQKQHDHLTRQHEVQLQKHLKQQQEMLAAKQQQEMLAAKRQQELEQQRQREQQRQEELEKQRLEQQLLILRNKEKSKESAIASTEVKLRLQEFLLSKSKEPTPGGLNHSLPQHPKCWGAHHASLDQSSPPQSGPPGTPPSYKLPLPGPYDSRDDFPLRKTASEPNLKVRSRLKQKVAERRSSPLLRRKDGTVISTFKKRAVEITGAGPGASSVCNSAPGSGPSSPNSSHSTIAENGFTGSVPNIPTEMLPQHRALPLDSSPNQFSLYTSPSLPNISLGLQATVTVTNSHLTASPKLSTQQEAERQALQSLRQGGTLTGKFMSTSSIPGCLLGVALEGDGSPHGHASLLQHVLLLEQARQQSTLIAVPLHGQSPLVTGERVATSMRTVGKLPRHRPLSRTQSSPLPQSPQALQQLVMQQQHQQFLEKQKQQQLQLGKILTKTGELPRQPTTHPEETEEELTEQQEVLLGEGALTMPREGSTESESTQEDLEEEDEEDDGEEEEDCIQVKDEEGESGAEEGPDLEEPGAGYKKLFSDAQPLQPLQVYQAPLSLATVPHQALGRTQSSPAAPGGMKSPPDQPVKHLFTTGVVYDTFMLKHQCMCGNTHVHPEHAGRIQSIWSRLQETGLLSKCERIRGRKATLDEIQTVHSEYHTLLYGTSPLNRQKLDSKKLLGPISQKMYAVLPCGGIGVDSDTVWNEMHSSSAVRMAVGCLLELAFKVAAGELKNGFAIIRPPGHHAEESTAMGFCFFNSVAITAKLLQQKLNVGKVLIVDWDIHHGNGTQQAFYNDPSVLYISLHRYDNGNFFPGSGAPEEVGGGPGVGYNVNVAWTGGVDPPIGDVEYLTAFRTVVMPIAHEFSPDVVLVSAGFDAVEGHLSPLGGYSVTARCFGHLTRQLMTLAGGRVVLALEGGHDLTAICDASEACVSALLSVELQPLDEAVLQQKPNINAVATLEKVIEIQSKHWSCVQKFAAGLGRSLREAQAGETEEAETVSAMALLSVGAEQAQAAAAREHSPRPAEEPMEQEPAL
Description: Competitive inhibition of HDAC5 using KI-104 as substrate by fluorescence assay

[2] = target: T3, Protein deacetylase HDAC6 (Homo sapiens, UniProt Q9UBN7)
T3 sequence (Q9UBN7 whole entry): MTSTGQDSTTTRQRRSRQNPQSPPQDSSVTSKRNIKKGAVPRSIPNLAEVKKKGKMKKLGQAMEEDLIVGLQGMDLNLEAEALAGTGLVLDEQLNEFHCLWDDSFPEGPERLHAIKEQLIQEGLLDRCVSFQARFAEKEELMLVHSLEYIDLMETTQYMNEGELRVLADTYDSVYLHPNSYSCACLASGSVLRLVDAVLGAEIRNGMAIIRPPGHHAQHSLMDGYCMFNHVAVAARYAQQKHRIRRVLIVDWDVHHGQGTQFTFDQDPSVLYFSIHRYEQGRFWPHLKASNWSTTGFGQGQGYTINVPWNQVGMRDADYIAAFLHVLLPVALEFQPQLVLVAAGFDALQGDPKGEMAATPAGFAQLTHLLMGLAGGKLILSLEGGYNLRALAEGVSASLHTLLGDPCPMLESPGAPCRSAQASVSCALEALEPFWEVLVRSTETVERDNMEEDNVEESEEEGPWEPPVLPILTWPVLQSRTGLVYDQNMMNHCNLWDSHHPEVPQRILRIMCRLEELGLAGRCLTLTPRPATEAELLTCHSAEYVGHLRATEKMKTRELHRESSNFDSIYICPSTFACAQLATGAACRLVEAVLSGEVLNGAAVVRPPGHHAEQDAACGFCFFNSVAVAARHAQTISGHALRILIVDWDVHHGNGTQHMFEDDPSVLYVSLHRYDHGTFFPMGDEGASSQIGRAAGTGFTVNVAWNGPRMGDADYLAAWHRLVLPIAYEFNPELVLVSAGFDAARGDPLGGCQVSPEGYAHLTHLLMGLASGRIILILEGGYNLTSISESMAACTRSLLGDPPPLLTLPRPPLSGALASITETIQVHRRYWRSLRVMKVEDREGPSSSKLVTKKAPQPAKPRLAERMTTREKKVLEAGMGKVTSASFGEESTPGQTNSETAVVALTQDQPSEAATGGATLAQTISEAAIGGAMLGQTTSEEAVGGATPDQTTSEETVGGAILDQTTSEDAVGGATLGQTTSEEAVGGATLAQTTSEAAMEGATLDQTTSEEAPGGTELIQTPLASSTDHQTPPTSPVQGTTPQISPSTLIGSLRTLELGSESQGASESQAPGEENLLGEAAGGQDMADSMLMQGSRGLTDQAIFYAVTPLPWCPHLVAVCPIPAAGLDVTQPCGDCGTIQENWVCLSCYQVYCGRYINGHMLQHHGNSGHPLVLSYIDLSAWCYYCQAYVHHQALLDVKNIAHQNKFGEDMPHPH
Description: Competitive inhibition of HDAC6 using KI-104 as substrate by fluorescence assay

Cytochrome P450 2C9 = Cytochrome P450 2C9 (Homo sapiens, UniProt P11712); experiment: Inhibition of CYP2C9 in human liver microsomes by fluorescence assay; format: ADME, Microsome
Sequence of Cytochrome P450 2C9 (P11712 whole entry): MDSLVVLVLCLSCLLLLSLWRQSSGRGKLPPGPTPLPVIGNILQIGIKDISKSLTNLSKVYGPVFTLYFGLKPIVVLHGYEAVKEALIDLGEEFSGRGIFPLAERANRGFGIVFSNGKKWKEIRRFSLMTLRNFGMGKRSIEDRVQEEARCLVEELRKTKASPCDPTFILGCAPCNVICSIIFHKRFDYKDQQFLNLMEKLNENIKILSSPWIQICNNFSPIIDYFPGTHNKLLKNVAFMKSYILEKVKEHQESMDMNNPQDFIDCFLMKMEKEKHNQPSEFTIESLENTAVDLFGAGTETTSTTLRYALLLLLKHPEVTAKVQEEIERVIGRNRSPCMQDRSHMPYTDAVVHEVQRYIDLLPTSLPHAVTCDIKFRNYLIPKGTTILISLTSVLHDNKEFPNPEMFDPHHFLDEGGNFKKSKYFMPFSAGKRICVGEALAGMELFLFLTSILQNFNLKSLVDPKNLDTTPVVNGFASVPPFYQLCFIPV

Histone deacetylase 9 = Histone deacetylase 9 (Homo sapiens, UniProt Q9UKV0)
Sequence of Histone deacetylase 9 (Q9UKV0 whole entry): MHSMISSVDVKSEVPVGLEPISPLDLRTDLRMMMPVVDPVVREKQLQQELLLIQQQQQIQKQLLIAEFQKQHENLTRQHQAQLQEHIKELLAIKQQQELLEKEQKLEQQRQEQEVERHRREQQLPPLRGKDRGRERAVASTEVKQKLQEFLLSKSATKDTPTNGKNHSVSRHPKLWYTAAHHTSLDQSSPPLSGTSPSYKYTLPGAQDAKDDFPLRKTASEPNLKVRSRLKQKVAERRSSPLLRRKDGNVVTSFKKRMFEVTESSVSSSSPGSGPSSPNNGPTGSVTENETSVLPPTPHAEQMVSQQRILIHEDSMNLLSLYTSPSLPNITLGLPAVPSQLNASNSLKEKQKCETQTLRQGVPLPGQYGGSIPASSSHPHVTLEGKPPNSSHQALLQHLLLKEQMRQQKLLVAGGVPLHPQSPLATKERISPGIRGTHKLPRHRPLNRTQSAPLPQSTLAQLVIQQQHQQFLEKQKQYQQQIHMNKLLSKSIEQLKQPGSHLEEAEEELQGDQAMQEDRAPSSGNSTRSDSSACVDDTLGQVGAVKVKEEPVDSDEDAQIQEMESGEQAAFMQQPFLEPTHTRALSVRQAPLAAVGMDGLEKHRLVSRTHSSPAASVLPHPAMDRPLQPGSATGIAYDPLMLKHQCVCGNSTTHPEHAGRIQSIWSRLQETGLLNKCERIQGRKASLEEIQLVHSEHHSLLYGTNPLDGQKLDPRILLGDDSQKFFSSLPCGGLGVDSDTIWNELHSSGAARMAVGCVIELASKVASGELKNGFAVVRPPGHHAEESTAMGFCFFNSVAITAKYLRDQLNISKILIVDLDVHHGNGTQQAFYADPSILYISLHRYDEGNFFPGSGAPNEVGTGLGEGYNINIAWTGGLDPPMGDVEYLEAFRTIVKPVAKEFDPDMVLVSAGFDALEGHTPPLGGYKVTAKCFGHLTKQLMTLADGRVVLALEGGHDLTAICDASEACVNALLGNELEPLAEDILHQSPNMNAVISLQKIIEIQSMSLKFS
Description: Competitive inhibition of HDAC9 using KI-104 as substrate by fluorescence assay

Cytochrome P450 2D6 [3] = target: T1, Cytochrome P450 2D6; experiment: Inhibition of CYP2D6 in human liver microsomes by fluorescence assay; format: ADME, Microsome
PC-3 = experiment: Antiproliferative activity against human PC3 cells after 96 hrs by celltiter 96 assay; format: functional, cell-based; settings: PC-3, 96 h
Cytochrome P450 2C19 = Cytochrome P450 2C19 (Homo sapiens, UniProt P33261); experiment: Inhibition of CYP2C19 in human liver microsomes by fluorescence assay; format: ADME, Microsome
Sequence of Cytochrome P450 2C19 (P33261 whole entry): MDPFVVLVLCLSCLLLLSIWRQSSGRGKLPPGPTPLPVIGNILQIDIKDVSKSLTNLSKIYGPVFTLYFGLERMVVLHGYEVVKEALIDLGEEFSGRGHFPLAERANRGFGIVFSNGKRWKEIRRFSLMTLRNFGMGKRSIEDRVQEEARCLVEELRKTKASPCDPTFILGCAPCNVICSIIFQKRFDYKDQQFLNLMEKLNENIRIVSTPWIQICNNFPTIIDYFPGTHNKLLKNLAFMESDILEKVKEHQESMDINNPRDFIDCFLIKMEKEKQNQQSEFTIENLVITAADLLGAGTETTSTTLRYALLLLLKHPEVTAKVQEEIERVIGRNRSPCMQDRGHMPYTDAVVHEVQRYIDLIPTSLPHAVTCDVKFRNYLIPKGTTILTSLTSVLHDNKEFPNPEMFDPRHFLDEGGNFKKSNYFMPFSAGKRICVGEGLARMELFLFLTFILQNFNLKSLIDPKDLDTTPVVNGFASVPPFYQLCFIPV

Histone deacetylase 1 = Histone deacetylase 1 (Homo sapiens, UniProt Q13547)
Description: Competitive inhibition of HDAC1 using KI-104 as substrate by fluorescence assay

Sequence of Histone deacetylase 4 (P56524 whole entry): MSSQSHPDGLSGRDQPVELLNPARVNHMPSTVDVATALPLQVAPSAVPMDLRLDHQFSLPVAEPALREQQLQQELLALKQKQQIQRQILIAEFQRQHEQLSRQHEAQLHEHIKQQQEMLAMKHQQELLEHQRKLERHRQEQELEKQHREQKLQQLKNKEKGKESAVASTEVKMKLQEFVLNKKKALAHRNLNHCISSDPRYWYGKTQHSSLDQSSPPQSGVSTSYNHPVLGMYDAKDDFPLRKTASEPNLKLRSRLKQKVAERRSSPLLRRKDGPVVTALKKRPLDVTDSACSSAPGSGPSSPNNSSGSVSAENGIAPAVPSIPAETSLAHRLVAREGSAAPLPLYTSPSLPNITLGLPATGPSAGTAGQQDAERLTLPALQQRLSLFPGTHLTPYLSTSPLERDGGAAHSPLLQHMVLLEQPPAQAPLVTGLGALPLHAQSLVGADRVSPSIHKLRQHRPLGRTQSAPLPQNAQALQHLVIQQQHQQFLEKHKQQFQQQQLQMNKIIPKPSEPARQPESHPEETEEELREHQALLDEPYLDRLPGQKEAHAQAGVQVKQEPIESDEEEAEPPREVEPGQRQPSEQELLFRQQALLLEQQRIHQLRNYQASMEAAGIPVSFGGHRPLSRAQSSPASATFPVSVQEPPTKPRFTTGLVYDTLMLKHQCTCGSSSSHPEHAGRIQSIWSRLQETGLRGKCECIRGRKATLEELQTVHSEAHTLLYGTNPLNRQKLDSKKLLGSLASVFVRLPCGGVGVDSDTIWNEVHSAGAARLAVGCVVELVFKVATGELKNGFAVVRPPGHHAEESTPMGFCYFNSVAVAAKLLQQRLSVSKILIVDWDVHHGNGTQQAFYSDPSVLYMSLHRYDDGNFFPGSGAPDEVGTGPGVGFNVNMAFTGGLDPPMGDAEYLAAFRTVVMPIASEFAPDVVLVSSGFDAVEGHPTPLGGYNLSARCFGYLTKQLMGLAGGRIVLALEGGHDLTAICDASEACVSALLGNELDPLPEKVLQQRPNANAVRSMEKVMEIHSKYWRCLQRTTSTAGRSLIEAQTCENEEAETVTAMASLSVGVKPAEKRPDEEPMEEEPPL
T1 sequence (P10635 whole entry): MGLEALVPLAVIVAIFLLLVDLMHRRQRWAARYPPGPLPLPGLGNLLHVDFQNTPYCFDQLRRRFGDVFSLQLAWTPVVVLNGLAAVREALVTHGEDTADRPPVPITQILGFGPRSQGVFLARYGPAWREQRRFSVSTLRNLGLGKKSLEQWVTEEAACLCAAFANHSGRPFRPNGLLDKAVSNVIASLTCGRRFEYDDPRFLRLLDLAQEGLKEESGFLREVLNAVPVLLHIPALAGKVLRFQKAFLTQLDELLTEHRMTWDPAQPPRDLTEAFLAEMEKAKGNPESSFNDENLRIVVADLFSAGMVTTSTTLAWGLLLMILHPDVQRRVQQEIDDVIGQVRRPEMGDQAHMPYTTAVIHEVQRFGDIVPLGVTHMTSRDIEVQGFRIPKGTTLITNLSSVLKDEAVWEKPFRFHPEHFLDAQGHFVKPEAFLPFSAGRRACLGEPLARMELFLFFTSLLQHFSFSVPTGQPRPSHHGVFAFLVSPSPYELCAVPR

Structure (SMILES)	IC50 (Cytochrome P450 2D6 [1])	Ki (Histone deacetylase 4)	IC50 (COLO 205)	IC50 (CYP1A)	Ki (Histone deacetylase 5)	Ki [2]	IC50 (Cytochrome P450 2C9)	Ki (Histone deacetylase 9)	IC50 (Cytochrome P450 2D6 [3])	IC50 (PC-3)	IC50 (Cytochrome P450 2C19)	Ki (Histone deacetylase 1)
CCCCc1nc2cc(/C=C/C(=O)NO)ccc2n1CCN(CC)CC.Cl.Cl	> 10 µM	0.016 µM	0.56 µM	> 25 µM	0.021 µM	0.247 µM	> 25 µM	0.024 µM	> 25 µM	0.34 µM	5.78 µM	[…]
CN(C)CC(C)(C)Cn1c(CC(C)(C)C)nc2cc(/C=C/C(=O)NO)ccc21	> 10 µM	0.0079 µM	0.57 µM	> 25 µM	0.011 µM	0.094 µM	> 25 µM	0.011 µM	13.9 µM	0.5 µM	8.1 µM	0.024 µM
CCCCCCc1nc2cc(/C=C/C(=O)NO)ccc2n1CCN(C)C	3.17 µM	0.0053 µM	0.33 µM	> 25 µM	0.0092 µM	0.3 µM	10.4 µM	0.011 µM	> 25 µM	0.25 µM	10.3 µM	0.019 µM
